Results from article PMC3335078, “Length and Amino Acid Sequence of Peptides Substituted for the 5-HT3A Receptor M3M4 Loop May Affect Channel Expression and Desensitization” (PLoS ONE, 2012).

Test system: 5-HT3A-QDA receptor
Test: Outside-out patch clamp of transfected HEK293 cells, effect of ondansetron on 5-HT activated channels
Assay type: cell-based
Details: 1 µM ondansetron with 5-HT, -60 mV, data not shown
Method: HEK293 cells (CRL-1573, ATCC, Manassas, VA) seeded at low density on poly-lysine-coated, 12 mm, thin glass coverslips were transfected 24 h later using a modified calcium-phosphate precipitation technique with 500 ng DNA per well. After 12 h, cells were rinsed with fresh medium (DMEM supplemented with 10% FBS+100 Units ml^-1 penicillin+100 μg ml^-1 streptomycin+4 mM L-glutamine) and incubated at 28°C [34]. Recordings were performed 24-48 h later. For patch clamp experiments the coverslips were mounted on an inverted Zeiss IM microscope equipped with epifluorescent illumination. Cells expressing the GFP reporter were selected for patch clamp recording. Pipettes pulled from borosilicate glass capillaries ([…]-10, Harvard Apparatus Inc., Holliston, MA) with a tip resistance of 8-13 MΩ when filled with intracellular solution. The recordings were done using outside-out and cell-attached patch configurations. Data was acquired with an EPC9 amplifier using Pulse software, v8.65 (HEKA Instruments Inc., Bellmore, NY). Data were sampled at 20 kHz and filtered at 10 kHz. All point histograms and fits with a sum of two or three Gaussian functions were performed using the Levenberg-Marquardt algorithm implemented in Qub software. […] Effects of ondansetron were determined in the outside-out recording configuration at a holding potential of -60 mV.

Structure (SMILES): Cc1nccn1CC1CCc2c(c3ccccc3n2C)C1=O (stereo not shown) [ondansetron, Ondansetron]
- Block of 5-HT activated single channels: no similar channels were observed
